The target of data set [1] is T1, PSMA (Homo sapiens, UniProt Q04609). The text has this: Table printed on a drawing sheet, FIG. 25
(§1) Head of the field: IC50 (M)
The patent's description of the figure: FIG. 25 show PSMA-targeting peptide-linkers, according to embodiments of the present disclosure.
Where the first naming reader finds the target: head: PSMA-Targeting Peptide-Linker Sequences
Target sequence in this assay (Q04609 whole entry, looked up): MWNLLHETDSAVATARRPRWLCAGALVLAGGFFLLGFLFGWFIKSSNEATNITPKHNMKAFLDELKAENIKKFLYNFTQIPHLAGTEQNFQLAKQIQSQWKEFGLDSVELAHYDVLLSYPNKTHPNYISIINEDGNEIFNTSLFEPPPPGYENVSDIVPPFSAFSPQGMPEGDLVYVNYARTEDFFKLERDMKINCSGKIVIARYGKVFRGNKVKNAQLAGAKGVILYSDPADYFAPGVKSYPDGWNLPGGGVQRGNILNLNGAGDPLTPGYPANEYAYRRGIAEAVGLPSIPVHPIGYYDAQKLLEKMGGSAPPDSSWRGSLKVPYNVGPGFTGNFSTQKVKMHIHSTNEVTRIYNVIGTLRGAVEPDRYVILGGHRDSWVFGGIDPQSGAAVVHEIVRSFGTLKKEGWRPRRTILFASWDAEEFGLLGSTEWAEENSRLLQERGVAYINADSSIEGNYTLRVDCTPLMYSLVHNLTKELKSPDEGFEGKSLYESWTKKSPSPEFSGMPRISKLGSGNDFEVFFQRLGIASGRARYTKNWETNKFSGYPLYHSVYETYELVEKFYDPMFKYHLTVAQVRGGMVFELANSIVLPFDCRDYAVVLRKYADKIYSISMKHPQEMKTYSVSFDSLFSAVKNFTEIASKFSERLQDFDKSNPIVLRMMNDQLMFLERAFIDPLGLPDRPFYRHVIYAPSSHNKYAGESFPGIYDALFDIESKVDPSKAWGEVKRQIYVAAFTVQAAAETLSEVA

The target in data set [2] is T1, PSMA. The arrangement: compiled for 40 patients treated with ^225Ac-PSMA-617; host or cells: patients (mCRPC). To be noted: cited from earlier work; for clinical response: mCRPC patients.
Target sequence in this assay (Q04609 whole entry): as the sequence (Q04609 whole entry, looked up) above
For a further data set, the system named is B16-F10 tumors. The data set is described as follows: B16-F10 melanoma tumor growth inhibition and TME analysis. The format is in vivo, mice. The text has this: FIGS. 15A-15C show C′ dots inhibit melanoma tumor growth via ferroptotic induction and pro-inflammatory responses. […] Data represents analyses of n=4 mice per group, mean±s.e.m. *p<0.05 (non-parametric 2-way ANOVA).
Data represent mean±s.e.m. **** saline-PD1: P=0.0001; **** saline-alpha-MSH: P=0.0001; **** saline-(anti-PD1+alpha-MSH): P<0.0001; **PD1-(anti-PD1+alpha-MSH): P=0.0017; **alpha-MSH-(anti-PD1+alpha-MSH): P=0.0017.
The present example describes a statistically significant and marked drop in tumor volume (red curve) to nearly 65% of control values (blue curve) following a multiple, high-dose (60 μM) regimen of i.v.-injected αMSH-PEG-C′ dots in B16-F10 mice when tumors reached […]. […] To evaluate the extent of immune cell infiltration, IHC was performed to assess for Iba1, CD3, CD4, and CD8 expression, with results graphically depicted in FIG. 15C. […]
Particles have been either injected as multiple doses (n=3) alone or concomitantly with either the first three doses (“early”, on days 7, 10, and 13) or the final three doses (“late”, on days 16, 19, and 22) of anti-PD-1 (250 μg/mouse), anti-CTLA4 (100 μg/mouse), or anti-PD-1+anti-CTLA4 antibody regimens (see FIG. 12). […] It can then be determined whether the order of administration of these agents is important in terms of modulating overall treatment responses.

The next data set has as its system MC1-R. The data set is described as follows: IC50 (M).
Source text: Table printed on a drawing sheet, FIG. 13F
as §1
The patent's description of the figure: FIGS. 13A-13F show characterization of a lead alpha-MSH peptide-linker conjugate. Structural schematics of representative alpha-MSH peptides. […] FIG. 13B, FIG. 13C each show second generation peptides with reduced hydrophobicity containing PEG2 and one Ahx spacer: (FIG. 13B) PEG2-Ahx-d-Lys-alpha-MSH (yellow closed circle in FIG. 13E); and (FIG. 13C) PEG2-d-Lys-Ahx-alpha-MSH (green triangle in FIG. 13E). […] FIG. 13E and FIG. 13F show IC50 determination of MC1-R targeting Re-cyclized and lactam-cyclized peptides.
First copying reader's note: IC50 values belong to the competitive binding curves of FIG. 13E on the same sheet.
Where the first naming reader finds the target: head: MC1-R-Targeting Peptide Linker Sequences

`O=C(O)CC[C@H](NC(=O)N[C@@H](CCCCNC(=O)[C@H](Cc1ccc2ccccc2c1)NC(=O)[C@H]1CC[C@H](CNC(=O)CN2CCN(CC(=O)O)CCN(CC(=O)O)CCN(CC(=O)O)CC2)CC1)C(=O)O)C(=O)O` [PSMA-617, hooc-Lys(-2Nal-Tran-DOTA)-'CO'-Glu-cooh]: the IC50 against PSMA [1] came out at 21 nM. This counts as double-digit nanomolar.

Regarding `CC(=O)N[C@@H](CS)C(=O)NCCCCCC(=O)NCCCCCC(=O)N[C@H](CCCCN)C(=O)NCCCCCC(=O)NCCCC[C@H](NC(=O)N[C@@H](CCC(=O)O)C(=O)O)C(=O)O` [Prototype PSMAi, hooc-Lys(-Ahx-dLys(-nh2)-(Ahx)2-Cys-Ac)-'CO'-Glu-cooh], on PSMA [1], the IC50 was 4.5 nM.

For the compound `O=C([O-])CN1CCN(CC(=O)[O-])CCN(CC(=O)NCC2CCC(C(=O)N[C@@H](Cc3ccc4ccccc4c3)C(=O)NCCCC[C@H](NC(=O)N[C@@H](CCC(=O)O)C(=O)O)C(=O)O)CC2)CCN(CC(=O)[O-])CC1.[177Lu+3]` (stereo partly shown) [^177Lu-PSMA-617], the clinical response entry at PSMA [2] is recorded as “high response rate”.

In the case of `O=C([O-])CC[C@H](NC(=O)N[C@@H](CCCCNC(=O)[C@H](Cc1ccc2ccccc2c1)NC(=O)[C@H]1CC[C@H](CNC(=O)CN2CCN(CC(=O)[O-])CCN(CC(=O)[O-])CCN(CC(=O)[O-])CC2)CC1)C(=O)[O-])C(=O)[O-].[225Ac].[H+].[H+].[H+]` [^225Ac-PSMA-617], the salivary gland toxicity result on PSMA [2] (40 patients) is recorded as “frequent occurrence of severe xerostomia”. Moreover, the “patients who discontinued treatment due to xerostomia” value at PSMA [2] (clinical trial) is about 23%. For the same compound, the clinical response entry on PSMA [2] is recorded as “remarkable results”.

As for `Clc1cccc(CN=C2Nc3ccccc3NC23CCNCC3)c1` [liproxstatin-1], the “H&E staining of tumor tissue” value with B16-F10 tumors (after final dose) is “reversed”. In addition, the “effect of i.p. liproxstatin-1 on particle-induced tumor volume drop” value with B16-F10 tumors (mouse, in vivo, ip) is listed as “substantially attenuated”.

Regarding “Ac-Cys-(Ahx)2-dLys-Re(CCMSH) [Prototype αMSH]”, the IC50 in the data set with MC1-R worked out at 7 nM.

“Ac-Cys-PEG2-dLys-Ahx-Nle-Re(CCMSH) [2nd gen αMSH (#2)]” yielded an IC50 in the data set with MC1-R of 71 nM.

The values above are taken from patent publication US20240285543A1, “NANOPARTICLE-MEDIATED ENHANCEMENT OF IMMUNOTHERAPY TO PROMOTE FERROPTOSIS-INDUCED CYTOTOXICITY AND ANTITUMOR IMMUNE RESPONSES” (Memorial Sloan-Kettering Cancer Center, priority 2021, published 2024).
